Measurements as given in patent US8623924B2, “Compositions and methods for modulating metabolic pathways” (Nusirt Sciences, Inc., priority 2011, dated 2014).
Marks after values point to notes of the source that are not given here.

How the values were obtained:
[1] = Oxygen consumption/substrate utilization (metabolic chambers) in diet-induced obese mice; format: in vivo
Method: (§1) Six week old male c57/BL6 mice were fed a high-fat diet with fat increased to 45% of energy (Research Diets D12451) for 6 weeks to induce obesity.
Oxygen Consumption/Substrate Utilization: at the end of the obesity induction period (day 0 of treatment group) and at 2 weeks and 6 weeks of treatment, oxygen consumption and substrate utilization was measured via metabolic chambers using the Comprehensive Lab Animal Monitoring Systems (CLAMS, Columbus Instruments, Columbus, Ohio) in subgroups of each treatment group. Each animal was placed in individual cages without bedding that allow automated, non-invasive data collection. Each cage is an indirect open circuit calorimeter that provides measurement of oxygen consumption, carbon dioxide production, and concurrent measurement of food intake. All mice were acclimatized to the chambers for 24 hours prior to the experiment and maintained under the regular 12:12 light:dark cycle with free access to water and food. All experiments were started in the morning and data were collected for 24 hours. Each chamber was passed with 0.6 l of air/min and was sampled for 2 min at 32-minute intervals. Exhaust O2 and CO2 content from each chamber was compared with ambient O2 and CO2 content. Food consumption was measured by electronic scales.

IL-6 = test: Inflammatory biomarker IL-6 in diet-induced obese mice; format: in vivo; settings: 6 weeks on diet
[2] = Body weight, weight gain and visceral adiposity in diet-induced obese mice; format: in vivo; settings: 6 weeks on diet
Source text: as §1
(§2) At the of the treatment period (6 weeks) all animals were humanely euthanized, and blood and tissues collected for further experiments.

[3] = MicroPET/CT glucose and palmitate uptake in diet-induced obese mice; format: in vivo; settings: 6 weeks on diet
Source text: as §1
MicroPET/CT (Glucose and Palmitate Uptake): At the end of the treatment period (6 weeks of treatment) subgroups of each treatment diet group (5 animals/group, 35 animals total) were used to measure whole body glucose and palmitate uptake via PET/CT Imaging. To visualize these compounds using microPET imaging, the glucose or palmitate was labeled with fluorine-18 (108 mins half life) or carbon-11 (20 mins half life), respectively. Each mouse was fasted for 4 hours, then anesthetized using 1-3% isoflurane delivered by nose cone or in a mouse-sized induction chamber purpose-built for small animal imaging protocols. While under anesthesia the mice were injected iv with <2 mCi of each tracer, then be left for a period of time (minutes to up ˜1 hour) to allow the uptake of the tracer. During the scan, mice were kept warm using a thermostatically controlled heated bed and were treated with ophthalmic ointment prior to scanning. Following the live scan the mice were returned to their cage and revived. Mice were monitored constantly during this time. Following live data acquisition the mice were sacrificed by isoflurane overdose and organs harvested for further experiments.

irisin = test: Plasma irisin in diet-induced obese mice; format: in vivo; settings: six weeks, resveratrol 12.5 mg/kg diet, leucine 2.42%
Method: as §1
As described in Example 5, C2C12 myotubes treated with the indicated combinations of compounds were used to produce conditioned media, with which 3T3-L1 adipocytes were then treated. Fatty acid oxidation was measured as in Example 5. Irisin levels were measured by Western blot and ELISA, both in conditioned media and in plasma from mice treated according to Example 4.
ELISA: Irisin was also detected in C2C12 incubation media from treated cells and in mouse plasma using a commercial enzyme immunoassay kit obtained from Phoenix Pharmaceuticals, Inc. (Burlingame, Calif.). This kit uses an irisin (FNDC5 [16-127] fragment) and streptavidin-horseradish peroxidase detection on a microplate reader at 450 nm.

UCP1 = test: Subcutaneous adipose UCP1 mRNA expression in diet-induced obese mice; format: in vivo; settings: six weeks, resveratrol 12.5 mg/kg diet
Sirt1 [4] = target: T1, Sirt1 (Mus musculus, UniProt Q923E4); test: Adipose tissue Sirt1 activity in diet-induced obese mice; format: in vivo
T1 construct: from tissue; host or cells: adipose tissue of c57/BL6 mice
T1 sequence (Q923E4 1-737): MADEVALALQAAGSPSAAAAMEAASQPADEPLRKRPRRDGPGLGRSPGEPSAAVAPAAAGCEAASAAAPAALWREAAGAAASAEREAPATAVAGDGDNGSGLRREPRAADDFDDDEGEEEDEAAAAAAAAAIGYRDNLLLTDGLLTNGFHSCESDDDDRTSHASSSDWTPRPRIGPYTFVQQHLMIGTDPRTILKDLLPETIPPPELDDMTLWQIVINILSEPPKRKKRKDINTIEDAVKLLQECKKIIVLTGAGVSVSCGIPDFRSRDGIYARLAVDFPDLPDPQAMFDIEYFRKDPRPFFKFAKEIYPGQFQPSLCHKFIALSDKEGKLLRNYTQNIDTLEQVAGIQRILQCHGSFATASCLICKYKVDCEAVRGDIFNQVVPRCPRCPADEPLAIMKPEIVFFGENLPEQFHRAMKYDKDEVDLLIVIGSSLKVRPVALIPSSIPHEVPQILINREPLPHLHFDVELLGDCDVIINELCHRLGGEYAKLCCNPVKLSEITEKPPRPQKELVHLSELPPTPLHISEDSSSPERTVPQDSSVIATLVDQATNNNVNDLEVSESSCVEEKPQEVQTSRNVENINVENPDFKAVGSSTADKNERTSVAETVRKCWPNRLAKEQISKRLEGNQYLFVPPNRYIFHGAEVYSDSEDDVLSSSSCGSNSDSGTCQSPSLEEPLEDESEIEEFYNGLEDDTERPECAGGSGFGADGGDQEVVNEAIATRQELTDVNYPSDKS

[5] = Indices of insulin sensitivity (plasma glucose, insulin, HOMAIR) in diet-induced obese mice; format: in vivo; settings: 6 weeks on diet; for Glucose (mM) / Insulin (μU/mL): plasma
Source text: Insulin sensitivity can be measured using a variety of techniques, including HOMAIR. HOMAIR, which is the homeostasis model assessment of insulin resistance can be used as a screening index of changes in insulin sensitivity. HOMAIR can be calculated via standard formula from fasting plasma insulin and glucose as follows: HOMAIR=[Insulin (uU/mL)×glucose (mM)]/22.5.
as §1, §2

Adipocytes (3T3-L1) = test: Fatty acid oxidation (3H-palmitate) in 3T3-L1 adipocytes; format: cell-based; settings: leucine 0.5 mM, resveratrol 200 nM
Method: High glucose medium reduced fatty acid oxidation by 46% (p<0.05).
Fatty acid oxidation was measured using ^3H-labeled palmitate oxidation, with the ^3H label trapped as water as a result of the fat oxidation. The ^3H was then measured via scintillation counter.

SIRT1 [6] = test: Sirt1 activity (fluorimetric kit), Example 5; format: cell-based; settings: leucine 0.5 mM, HMB 5 μM, resveratrol 200 nM; summary in Example 5
Method: Sirt1 Activity: SIRT1 activity was measured by using the SIRT1 Fluorimetric Drug Discovery Kit (BML-AK555, ENZO Life Sciences International, Inc. PA, USA). The assay measures SIRT1 activity by the degree of deacetylation of a standardized substrate containing an acetylated lysine side chain. The substrate utilized is a peptide containing […] of human […]]), an established target of SIRT1 activity; SIRT1 activity is directly proportional to the degree of deacetylation of […]. Samples were incubated with peptide substrate (25 μM), and NAD^+ (500 μM) in a phosphate-buffered saline solution at 37° C. on a horizontal shaker for 45 minutes. The reaction was stopped with the addition of 2 mM nicotinamide and a developing solution that binds to the deacetylated lysine to form a fluorophore.

C-reactive protein = test: Inflammatory biomarker C-reactive protein in diet-induced obese mice; format: in vivo; settings: 6 weeks on diet
Adiponectin = Adiponectin in diet-induced obese mice; format: in vivo; settings: 6 weeks on diet
MCP-1 = test: Inflammatory biomarker MCP-1 in diet-induced obese mice; format: in vivo; settings: 6 weeks on diet
[7] = high resveratrol 225 mg/kg diet
[8] = low resveratrol 12.5 mg/kg diet, low HMB 2 g CaHMB/kg diet, high HMB 10 g CaHMB/kg diet, leucine 2.42% of diet

SMILES: Oc1ccc(/C=C/c2cc(O)cc(O)c2)cc1 [resveratrol, 3,5,4′-Trihydroxy-trans-stilbene]
- Heat Production [1, 7]: 0.552 ± 0.015^b
- Heat Production [1, 8]: 0.517 ± 0.014^a
- IL-6 (pg/mL) (IL-6; [7]): 14.1 ± 1.3^b pg/mL
- IL-6 (pg/mL) (IL-6; [8]): 23.2 ± 2.9^a pg/mL
- Visceral Adipose Volume (mm^3) [2, 7]: 6031 ± 323^a mm^3
- Weight (g) [2, 7]: 38.7 ± 1.2^a g
- Weight gain (g) [2, 7]: 22.3 ± 2.4^a g
- Visceral Adipose Volume (mm^3) [2, 8]: 6551 ± 575^a mm^3
- Weight (g) [2, 8]: 40.8 ± 2.5^a g
- Weight gain (g) [2, 8]: 20.9 ± 1.5^a g
- Fat oxidation (PET palmitate uptake; Muscle SUV) [3, 7]: 2.29 ± 0.11^b SUV
- Muscle Glucose Uptake (18F-deoxyglucose SUV) [3, 7]: 3.87 ± 0.32^a SUV
- Fat oxidation (PET palmitate uptake; Muscle SUV) [3, 8]: 1.51 ± 0.44^a SUV
- Muscle Glucose Uptake (18F-deoxyglucose SUV) [3, 8]: 3.63 ± 1.29^a SUV
- increase in plasma irisin (irisin): no independent effect
- increase in UCP1 expression in white subcutaneous adipose tissue (UCP1): no independent effect
- adipose tissue Sirt1 activity (Sirt1 [4]; high dose resveratrol (FIG. 10)): non-significant trend towards an increase
- adipose tissue Sirt1 activity (Sirt1 [4]; low dose of resveratrol, HMB, or their combinations with HMB or leucine (FIG. 10)): Neither resveratrol nor HMB exerted significant independent effects
- HOMAIR [5, 7]: 0.59 ± 0.26^b
- HOMAIR [5, 8]: 2.41 ± 0.66^a
- Glucose (mM) [5, 7]: 5.14 ± 0.75^a mM
- Insulin (μU/mL) [5, 7]: 10.1 ± 2.7^a μU/mL
- Glucose (mM) [5, 8]: 5.14 ± 0.85^a mM
- Insulin (μU/mL) [5, 8]: 10.4 ± 1.6^a μU/mL
- increase in fatty acid oxidation, high glucose (Adipocytes (3T3-L1); high (25 mM) glucose, 4 hours, HMB 5 uM, vs. control): no effect
- stimulation of fatty acid oxidation (Adipocytes (3T3-L1); HMB 5 μM, summary in Example 5): no effect
- stimulation of Sirt1 activity (SIRT1 [6]): no effect
- C-reactive protein (ng/mL) (C-reactive protein; [7]): 123.9 ± 35.3^a ng/mL
- C-reactive protein (ng/mL) (C-reactive protein; [8]): 134.8 ± 8.5^a ng/mL
- Adiponectin (ng/mL) (Adiponectin; [7]): 14.8 ± 1.8^b ng/mL
- Adiponectin (Adiponectin; [8]): 12.4 ± 1.1 ng/mL
- MCP-1 (pg/mL) (MCP-1; [7]): 27.3 ± 6.8^b pg/mL
- MCP-1 (pg/mL) (MCP-1; [8]): 104.4 ± 16.5^a pg/mL
